Key:
Assay type in all cases: functional
SF-268 = test: Cytotoxicity against human SF268 cells assessed as growth at 100 uM after 48 hrs by SRB protein assay relative to control; conditions: SF-268, 48 h, read-out: Activity
OVCAR-4 = test: Growth inhibition of human OVCAR4 cells after 48 hrs by SRB protein assay; conditions: OVCAR-4, 48 h; for TGI: read-out: Log TGI (converted)
IGROV-1 = test: Growth inhibition of human IGROV1 cells after 48 hrs by SRB protein assay; conditions: IGROV-1, 48 h; for TGI: read-out: Log TGI (converted)
NCI-H522 = test: Growth inhibition of human NCI-H522 cells after 48 hrs by SRB protein assay; conditions: NCI-H522, 48 h; for TGI: read-out: Log TGI (converted)
SK-MEL-2 = test: Growth inhibition of human SK-MEL-2 cells after 48 hrs by SRB protein assay; conditions: SK-MEL-2, 48 h; for TGI: read-out: Log TGI (converted)
RPMI-8226 = test: Growth inhibition of human RPMI8226 cells after 48 hrs by SRB protein assay; conditions: RPMI-8226, 48 h; for TGI: read-out: Log TGI (converted)
SF-295 = test: Growth inhibition of human SF295 cells after 48 hrs by SRB protein assay; conditions: SF-295, 48 h; for TGI: read-out: Log TGI (converted)
NCI-H23 = test: Growth inhibition of human NCI-H23 cells after 48 hrs by SRB protein assay; conditions: NCI-H23, 48 h; for TGI: read-out: Log TGI (converted)
HOP-92 = test: Growth inhibition of human HOP92 cells after 48 hrs by SRB protein assay; conditions: HOP-92, 48 h; for TGI: read-out: Log TGI (converted)
NCI/ADR-RES = test: Growth inhibition of human NCI/ADR-RES cells after 48 hrs by SRB protein assay; conditions: for TGI: read-out: Log TGI (converted)
NCI-H460 = test: Cytotoxicity against human […] cells assessed as growth at 100 uM after 48 hrs by SRB protein assay relative to control; conditions: NCI-H460, 48 h, read-out: Activity
MOLT-4 = test: Growth inhibition of human MOLT4 cells after 48 hrs by SRB protein assay; conditions: MOLT-4, 48 h; for TGI: read-out: Log TGI (converted)
KM12 = test: Growth inhibition of human KM12 cells after 48 hrs by SRB protein assay; conditions: KM12, 48 h; for TGI: read-out: Log TGI (converted)
MDA-MB-435 = test: Growth inhibition of human MDA-MB-435 cells after 48 hrs by SRB protein assay; conditions: MDA-MB-435, 48 h; for TGI: read-out: Log TGI (converted)
MCF7 = test: Cytotoxicity against human MCF7 cells assessed as growth at 100 uM after 48 hrs by SRB protein assay relative to control; conditions: MCF7, 48 h, read-out: Activity
TK-10 = test: Growth inhibition of human TK10 cells after 48 hrs by SRB protein assay; conditions: TK-10, 48 h; for TGI: read-out: Log TGI (converted)
K562 = test: Growth inhibition of human K562 cells after 48 hrs by SRB protein assay; conditions: K562, 48 h; for TGI: read-out: Log TGI (converted)
A498 = test: Growth inhibition of human A498 cells after 48 hrs by SRB protein assay; conditions: A498, 48 h; for TGI: read-out: Log TGI (converted)
NCI-H226 = test: Growth inhibition of human NCI-H226 cells after 48 hrs by SRB protein assay; conditions: NCI-H226, 48 h; for TGI: read-out: Log TGI (converted)

Compound	GI50 (IGROV-1)	TGI (IGROV-1)	GI50 (NCI-H522)	TGI (NCI-H522)	GI50 (SK-MEL-2)	TGI (SK-MEL-2)	GI50 (RPMI-8226)	TGI (RPMI-8226)	GI50 (SF-295)	TGI (SF-295)	GI50 (NCI-H23)	TGI (NCI-H23)	GI50 (HOP-92)	TGI (HOP-92)	GI50 (MOLT-4)	TGI (MOLT-4)	GI50 (KM12)	TGI (KM12)	GI50 (MDA-MB-435)	TGI (MDA-MB-435)	other results
O=C(Cc1csc2nc(-c3ccc(Br)cc3)cn12)N/N=C/c1ccc(O)cc1	10.7 µM	39.8 µM	10.7 µM	34.7 µM	26.3 µM	95.5 µM	4.27 µM	39.8 µM	12 µM	41.7 µM	7.59 µM	32.4 µM	19.1 µM	69.2 µM	4.17 µM	10 µM	17.8 µM	75.9 µM	6.31 µM	24.5 µM	growth at 100 µM (SF-268): 42%; GI50 (OVCAR-4): > 100 µM; TGI (OVCAR-4): > 100 µM; GI50 (NCI/ADR-RES): 21.4 µM; TGI (NCI/ADR-RES): 61.7 µM; growth at 100 µM (NCI-H460): 11%; growth at 100 µM (MCF7): 22%; GI50 (TK-10): 9.77 µM; TGI (TK-10): 33.1 µM; GI50 (K562): 1.82 µM; TGI (K562): 7.08 µM
Nc1nc2[nH]cnc2c(=S)[nH]1 [THIOGUANINE]	4.79 µM	145 µM	0.912 µM	6.31 µM	0.933 µM	10.7 µM	0.398 µM	20.9 µM	1.02 µM	158 µM	1.07 µM	22.9 µM	0.741 µM	24 µM	0.269 µM	15.5 µM	1.74 µM	31.6 µM	0.851 µM	32.4 µM	GI50 (OVCAR-4): 1.51 µM; TGI (OVCAR-4): 100 µM; GI50 (A498): 6.76 µM; TGI (A498): 95.5 µM; GI50 (NCI-H226): 4.07 µM; TGI (NCI-H226): 97.7 µM; GI50 (TK-10): 1.05 µM; TGI (TK-10): 79.4 µM; GI50 (K562): 0.407 µM; TGI (K562): 70.8 µM
O=C(Cc1csc2nc(-c3ccc(Br)cc3)cn12)N/N=C/c1ccccc1O	1.05 µM	11.5 µM	5.25 µM	26.9 µM	20.9 µM	53.7 µM	2.82 µM	20.9 µM	2.75 µM	9.33 µM	3.39 µM	14.1 µM	2.09 µM	14.5 µM	2.34 µM	10.7 µM	3.63 µM	17 µM	3.31 µM	13.5 µM	growth at 100 µM (SF-268): 50%; GI50 (NCI-H226): 1.95 µM; TGI (NCI-H226): 7.76 µM; GI50 (NCI/ADR-RES): 2.51 µM; TGI (NCI/ADR-RES): 6.76 µM; growth at 100 µM (NCI-H460): 0%; growth at 100 µM (MCF7): 7%; GI50 (TK-10): 2.04 µM; TGI (TK-10): 8.71 µM; GI50 (K562): 0.0372 µM; TGI (K562): 2.95 µM
O=C(Cc1csc2nc(-c3ccc(Br)cc3)cn12)N/N=C/c1ccccc1	11.2 µM	32.4 µM	14.1 µM	60.3 µM	33.1 µM	> 100 µM	7.41 µM	> 100 µM	12 µM	37.2 µM	12.6 µM	61.7 µM	12.3 µM	37.2 µM	6.76 µM	37.2 µM	26.3 µM	> 100 µM	12 µM	51.3 µM	growth at 100 µM (SF-268): 65%; GI50 (OVCAR-4): 46.8 µM; TGI (OVCAR-4): > 100 µM; GI50 (NCI/ADR-RES): 13.5 µM; TGI (NCI/ADR-RES): 67.6 µM; growth at 100 µM (NCI-H460): 12%; growth at 100 µM (MCF7): 57%; GI50 (TK-10): 14.1 µM; TGI (TK-10): 41.7 µM; TGI (K562): 7.94 µM
O=C(Cc1csc2nc(-c3ccc(Br)cc3)cn12)N/N=C/c1ccc(Cl)cc1Cl	15.8 µM	45.7 µM	25.7 µM	> 100 µM	72.4 µM	> 100 µM	79.4 µM	> 100 µM	34.7 µM	> 100 µM	25.7 µM	56.2 µM	28.2 µM	> 100 µM	1 µM	26.3 µM	38 µM	> 100 µM	31.6 µM	> 100 µM	growth at 100 µM (SF-268): 94%; GI50 (OVCAR-4): 37.2 µM; TGI (OVCAR-4): > 100 µM; GI50 (A498): 29.5 µM; TGI (A498): 63.1 µM; GI50 (NCI-H226): 31.6 µM; TGI (NCI-H226): 91.2 µM; GI50 (NCI/ADR-RES): 17.4 µM; TGI (NCI/ADR-RES): 52.5 µM; growth at 100 µM (NCI-H460): 24%; growth at 100 µM (MCF7): 46%
COc1cccc(OC)c1/C=N/NC(=O)Cc1csc2nc(-c3ccc(Br)cc3)cn12	3.98 µM	26.9 µM	22.9 µM	> 100 µM	89.1 µM	> 100 µM	10.2 µM	> 100 µM	12.3 µM	34.7 µM	19.5 µM	52.5 µM	13.8 µM	35.5 µM	3.47 µM	8.13 µM	8.91 µM	> 100 µM	3.98 µM	16.2 µM	growth at 100 µM (SF-268): 82%; GI50 (OVCAR-4): 28.2 µM; TGI (OVCAR-4): > 100 µM; GI50 (NCI/ADR-RES): 12.9 µM; TGI (NCI/ADR-RES): 35.5 µM; growth at 100 µM (NCI-H460): 15%; growth at 100 µM (MCF7): 27%; GI50 (TK-10): 16.2 µM; TGI (TK-10): 51.3 µM; GI50 (K562): 2.95 µM; TGI (K562): 6.92 µM

Reference: ChEMBL document CHEMBL1143799, “Synthesis and primary cytotoxicity evaluation of new imidazo[2,1-b]thiazole derivatives” (2007)
